Results: patent US20240189307A1, “METHODS OF STABILIZING THE NEURONAL PROTEOME AGAINST COLLAPSE AND PROTECTING VASCULAR CELLS” (ALBERT EINSTEIN COLLEGE OF MEDICINE, priority 2021, published 2024)

Tests used:
KFERQ-Dendra mice = assay: CMA activation in brain of KFERQ-Dendra mice; conditions: administered in vivo
From the text: To test this possibility, we measured CMA in a mouse model of tau-mediated proteotoxicity expressing mutant human tau (hTau^P301L) under the Thy 1.2 promotor (line pR5). We crossed hTau^P301L mice with a transgenic mouse model that expresses systemically a KFERQ-tagged fluorescent protein Dendra2 (KFERQ-Dendra), recently developed by our group. This reporter protein, when targeted for degradation via CMA, highlights lysosomes as fluorescent puncta, that can be counted as read out of CMA activity.

[1] = Pharmacokinetic analysis in mice brain after p.o. and i.v. administration; assay type: in vivo; conditions: p.o. 10 mg/Kg and i.v. 1 mg/kg
[2] = test system: Tg mice (APPSwe; PS2N141I; TauP301L); assay: Triple transgenic (Tg, TauPS2APP) mouse model of Alzheimer's disease-related proteotoxicity, oral daily CA; assay type: in vivo
From the text: FIG. 12. Chemical activation of CMA improves behavior and neuropathology in a mouse model of Alzheimer's disease-related proteotoxicity. (A) Schematic of regimen of CMA activator (CA) administration to TauPS2APP (Tg) mice. (B-D) Performance of Tg mice administered vehicle (Veh) or CMA activator (CA) in the novel object recognition test (B, left plot: % of time dedicated to the novel object; right plot: discrimination index), the elevated plus maze (C) and the forced swim test (D). (E) Clasping score in Tg mice +/− CA: time course of clasping score increase (left) and mean linear regression coefficient (right). (F) Performance of Tg mice +/− CA in horizontal grid test. (G-O) Immunostaining of immature amyloid plaques (MOAB2), mature amyloid depositions (6E10), β-sheet marker (Thioflavin S) and Threonine231-phosphorylated tau (pThr231 tau) in the dorsal hippocampus of Tg mice +/− CA. Montages of individual images from the scanning of whole brain slices are shown. Inset: Higher magnification of pThr231 tau staining. Scale bar: 200 μm. Quantification of images of montages of individual images from the scanning of whole brain slices of percentage of area positive and plaque size for MOAB2 (G, J), 6E10 (H, K) or Thioflavin S (I, L). Relationship between number of plaques and average plaque size for different markers of plaque maturity (ThS>6E10>MOAB2) […]. Quantification of percentage of area positive for pThr231 tau (N) and of the overlap between pThr231 tau staining and 6E10 staining (O). All quantifications (except clasping—E) were done at 12 months, in 4-6 mice per group. Data are mean±s.e.m. Comparisons were made using unpaired t-test (B-D, F, G-O), Two-way ANOVA test followed by Sidak's post-hoc analysis (E). *p<0.05, **p<0.005, ***p<0.0005.
FIG. 13. Effect of chemical activation of CMA in a mouse model of Alzheimer's disease-related proteotoxicity. (A-D) Quantification of size of plaques positive for MOAB2 (t7=3.181, p=0.0155) (A), 6E10 (B) or Thioflavin S (ThS) (C) and of T231-phosphorylated tau pathology (t8=2.382, p=0.0444) (D) in brain cortex from Tg mice administered Veh or CA for 4 months. (E) Summary heatmap highlighting the extent of pathology reduction upon CMA activation in cortex and dorsal hippocampus. * highlights significant difference between Veh and CA administered Tg mice. (F) Immunoblot for S202/T205-phosphorylated (AT8) tau in the brain of Tg mice treated with Veh or CA. Representative immunoblot (left) and densitometric quantification (t8=2.425, p=0.0415) (right). Values were normalized to ponceau and are expressed as folds of Veh treated mice. (G) Number of GFAP-positive astrocytes per area unit (t8=4.058, p=0.0036). (H-I) Representative images of immunostaining of inflammation (microglial marker: Iba1—Green), amyloid pathology (MOAB2—Magenta) and nuclear staining with DAPI (blue) in the dorsal hippocampus of Tg mice administered Veh or CA. Montages of individual images of the dorsal hippocampus from the scanning of whole brain slices are shown. Quantification of number of Iba1-positive microglial cells per area unit (t8=2.041, p=0.0755) (left) and mean cell size (t8=2.079, p=0.0713) (right) (H) and colocalization coefficient between microglia (Iba1) and amyloid plaques (MOAB2) (I) (Mann Whitney U=6, p=0.2571). Mean±s.e.m. and individual values are shown. Comparisons were made using unpaired t-test analysis. *: p<0.05, **: p<0.005.
Male wild-type mice (C57BL/6J) or transgenic for CaMKIIα-Cre (B6.Cg-Tg(Camk2α-cre)T29-1Stl/J, Jackson Laboratory), LAMP-2A^flox/flox (Schneider et al., 2014), Tau^P301L (line pR5), Tg (APP^Swe; PS2^N141I; Tau^P301L), PS19 (Tau^P301S) (Yoshiyama et al., 2007) and Atg7^f/f were used in the study. Conditional LAMP-2A deletion was generated by breeding LAMP-2A^flox/flox with the transgenic Cre mice of interest. […]

[3] = dorsal hippocampus, 30 mg/kg oral daily, 4 months
[4] = hippocampus and cortex, 30 mg/kg oral daily, 4 months

## CC(=O)Nc1ccc(-c2cnc3cc(Cl)ccc3n2)cc1 [CA77.1]
KFERQ-Dendra mice
  activation of CMA in brain in vivo: activation of CMA in brain of KFERQ-Dendra mice
[1]
  brain penetrance and pharmacokinetics: brain penetrance with favorable pharmacokinetics
[2]; 30 mg/kg oral daily for 4 months from 8 months of age
  visual memory (novel object recognition test): better visual memory
[2]; 30 mg/kg oral daily, 4 months
  anxiety- and depression-like behaviors (elevated plus maze, forced swim test): decreased anxiety- and depression-like behaviors
  clasping progression: slower clasping progression
  number of amyloid deposits: lower number of deposits depending on the deposit maturity
  performance in horizontal grid test: increased performance in horizontal grid test
[2]; brain, 30 mg/kg oral daily, 4 months
  S202/T205-phosphorylated (AT8) tau by immunoblot: significant reduction of the mature phosphosite AT8
[2]; [3]
  association of glial cells with amyloid plaque-like deposit: less association of glial cells with amyloid plaque-like deposit
  number of microglia and astrocytes: lower number of microglia and astrocytes in the dorsal hippocampus
[2]; [4]
  T231 phosphorylated Tau levels: reduced levels of the early T231 phosphorylated Tau
  area and size of amyloid plaques (MOAB2, 6E10, thioflavin S): reduced area and size of immature (MOAB2-positive) and mature (6E10 and thioflavin S-positive) amyloid plaques
